The record followed here is patent US20240409536A1, “COMPOUNDS AND METHODS FOR MODULATING SPLICING” (REMIX THERAPEUTICS INC., priority 2021, published 2024).

One assay has as its system SMN2 mRNA. Description: Gene panel canonical junction qPCR assay, SMN2 CJ mRNA decrease. Particulars: Homo sapiens, canonical junction qPCR, read-out: SMN2 IC50 (decrease in CJ mRNA levels). The format is cell-based, human. An outline of the steps:
(§1)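 A673 or K562 cells were treated with compound, and lysates underwent cDNA synthesis and qPCR with a CY5 5′-nuclease probe or primer spanning the canonical exon junction. ΔCt versus GAPDH, GUSB or PPIA was normalized to DMSO (2^(−ΔΔCt)), converted to percentage response and fitted four-parameter logistic for IC50.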
A general note: In qPCR the cycle at which signal appears reflects the starting amount.

A further assay has as its system Target C mRNA. The experiment in a line: Gene panel canonical junction qPCR assay, Target C CJ mRNA decrease. Particulars: Homo sapiens, canonical junction qPCR, read-out: Target C IC50 (decrease in CJ mRNA levels). The format is cell-based. An outline of the steps: as §1
A further assay relates to HiBiT-tagged HTT protein. Description: HiBiT protein abundance assay, HTT (K562 HiBiT knock-in cells). The format is cell-based, human. The note with it: 24 hours. The essentials:
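Luminescent readout of HiBiT-tagged endogenous protein after lysis, following 24 h compound exposure of knock-in K562 lines at 37 °C. Ten 3-fold concentrations from 10 μM final, DMSO ≤0.25%. Four-parameter logistic fit of normalized response gives concentration halving abundance (IC50).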
(With HiBiT, luminescence reflects the tagged protein that the partner subunit can reach.)

For the next assay, the system named is Target C. Description: HiBiT protein abundance assay, Target C (K562 HiBiT knock-in cells). The class given is cell-based, human. Particulars: 24 hours. An outline of the steps:
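Protein abundance read by HiBiT lytic luminescence after 24 h compound exposure (37 °C) of knock-in K562 cells, 10000 cells/well in IMDM+1% FBS. Dosing: 10 points, 3-fold, top 10 μM final, ≤0.25% DMSO. Four-parameter logistic fit gave concentration reducing abundance to 50% of untreated control.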

One may read the IC50 as the point on the concentration scale where inhibition reaches its midpoint. For the compound `Cc1cnc2c(N3CCNCC3)ccc(C(=O)Nc3cc(F)c4nc(C)cn4c3)c2n1` [Compound 197, N-{8-fluoro-2-methylimidazo[1,2-a]pyridin-6-yl}-3-methyl-8-(piperazin-1-yl)quinoxaline-5-carboxamide; trifluoroacetic acid], the half-inhibitory concentration (IC50) is less than 0.1 µM in the assay on SMN2 mRNA, more than 10 µM in the assay with Target C mRNA, 0.1 to 1 µM in the assay on HiBiT-tagged HTT protein and 1 to 10 µM with Target C.

In the case of `COCCOc1cc2c(N3CCNCC3)ccc(C(=O)Nc3cc(F)c4nc(C)cn4c3)c2nn1` [Compound 199, N-{8-fluoro-2-methylimidazo[1,2-a]pyridin-6-yl}-3-(2-methoxyethoxy)-5-(piperazin-1-yl)cinnoline-8-carboxamide], the half-maximal inhibitory concentration (IC50) in the assay on SMN2 mRNA was less than 0.1 µM; in the assay with Target C mRNA it was more than 10 µM; with HiBiT-tagged HTT protein, 1 to 10 µM; in the assay on Target C, 1 to 10 µM.

With `Cc1cnc2c(N3CCC(N(C)C)CC3)ccc(C(=O)Nc3cc(F)c4nc(C)cn4c3)c2n1` [Compound 200, 8-[4-(dimethylamino)piperidin-1-yl]-N-{8-fluoro-2-methylimidazo[1,2-a]pyridin-6-yl}-3-methylquinoxaline-5-carboxamide], the IC50 was less than 0.1 µM in the assay on SMN2 mRNA, 0.1 to 1 µM with Target C mRNA, less than 0.1 µM with HiBiT-tagged HTT protein and 0.1 to 1 µM in the assay with Target C.

Turning to `CNC1CCN(c2ccc(C(=O)Nc3cc(F)c4nc(C)cn4c3)c3nc(OC)cnc23)C1` (centres unmarked) [Compound 202, N-{8-fluoro-2-methylimidazo[1,2-a]pyridin-6-yl}-3-methoxy-8-[3-(methylamino)pyrrolidin-1-yl]quinoxaline-5-carboxamide; bis(trifluoroacetic acid)], the half-maximal inhibitory concentration (IC50) in the assay with SMN2 mRNA was less than 0.1 µM; in the assay with Target C mRNA, more than 10 µM; with HiBiT-tagged HTT protein, 1 to 10 µM; with Target C, 1 to 10 µM.

Turning to `CN[C@@H]1CCN(c2ccc(C(=O)Nc3cc(F)c4nc(C)cn4c3)c3nc(OC)cnc23)C1` [Compound 204, (R)—N-{8-fluoro-2-methylimidazo[1,2-a]pyridin-6-yl}-3-methoxy-8-[3-(methylamino)pyrrolidin-1-yl]quinoxaline-5-carboxamide; trifluoroacetic acid], the half-inhibitory concentration (IC50) was less than 0.1 µM in the assay on SMN2 mRNA, more than 10 µM with Target C mRNA, 1 to 10 µM with HiBiT-tagged HTT protein and 1 to 10 µM with Target C.

On to `COc1cnc2c(N3C[C@@H](C)N[C@@H](C)C3)ccc(C(=O)Nc3cc(F)c4nc(C)cn4c3)c2n1` [Compound 205, 8-[(3R,5S)-3,5-dimethylpiperazin-1-yl]-N-{8-fluoro-2-methylimidazo[1,2-a]pyridin-6-yl}-3-methoxyquinoxaline-5-carboxamide; trifluoroacetic acid], for which the IC50 with SMN2 mRNA is less than 0.1 µM; with Target C mRNA it was 0.1 to 1 µM; in the assay on HiBiT-tagged HTT protein, 0.1 to 1 µM; with Target C, 0.1 to 1 µM.

On to `COc1cnc2c(N3CCC(N(C)C)CC3)ccc(C(=O)Nc3cc(F)c4nc(C)cn4c3)c2n1` [Compound 206, 8-[4-(dimethylamino)piperidin-1-yl]-N-{8-fluoro-2-methylimidazo[1,2-a]pyridin-6-yl}-3-methoxyquinoxaline-5-carboxamide; trifluoroacetic acid], for which the IC50 is less than 0.1 µM with SMN2 mRNA, 0.1 to 1 µM in the assay with Target C mRNA, 0.1 to 1 µM with HiBiT-tagged HTT protein and 0.1 to 1 µM with Target C.

Regarding `COc1cnc2c(N3CCNCC3)ccc(C(=O)Nc3cc(F)c4nc(C)cn4c3)c2n1` [Compound 207, N-{8-fluoro-2-methylimidazo[1,2-a]pyridin-6-yl}-3-methoxy-8-(piperazin-1-yl)quinoxaline-5-carboxamide; bis(trifluoroacetic acid)], the 50% inhibitory concentration (IC50) in the assay with SMN2 mRNA was less than 0.1 µM; in the assay on Target C mRNA, more than 10 µM; in the assay with HiBiT-tagged HTT protein, 0.1 to 1 µM; in the assay with Target C, 1 to 10 µM.

Consider `Cc1cnc2c(C(=O)Nc3cc(F)c4nc(C)cn4c3)ccc(N3CCC(N(C)C)CC3)c2n1` [Compound 208, 8-[4-(dimethylamino)piperidin-1-yl]-N-{8-fluoro-2-methylimidazo[1,2-a]pyridin-6-yl}-2-methylquinoxaline-5-carboxamide; bis(trifluoroacetic acid)], for which the IC50 with SMN2 mRNA was less than 0.1 µM; with Target C mRNA, more than 10 µM; with HiBiT-tagged HTT protein, 1 to 10 µM; in the assay with Target C it was 1 to 10 µM.

Take `Cc1ccc2c(N3C[C@@H](C)N[C@@H](C)C3)ccc(C(=O)Nc3cc(F)c4nc(C)cn4c3)c2n1` [Compound 214, 5-[(3R,5S)-3,5-dimethylpiperazin-1-yl]-N-{8-fluoro-2-methylimidazo[1,2-a]pyridin-6-yl}-2-methylquinoline-8-carboxamide]: the IC50 was less than 0.1 µM in the assay with SMN2 mRNA, 1 to 10 µM in the assay on Target C mRNA, 1 to 10 µM with HiBiT-tagged HTT protein and 1 to 10 µM with Target C.

Turning to `Cc1ccc2c(N3CCC(N(C)C)CC3)ccc(C(=O)Nc3cc(F)c4nc(C)cn4c3)c2n1` [Compound 215, 5-[4-(dimethylamino)piperidin-1-yl]-N-{8-fluoro-2-methylimidazo[1,2-a]pyridin-6-yl}-2-methylquinoline-8-carboxamide], the IC50 with SMN2 mRNA was less than 0.1 µM; in the assay on Target C mRNA, 1 to 10 µM; in the assay on HiBiT-tagged HTT protein, 1 to 10 µM; in the assay with Target C, 1 to 10 µM.

Regarding `Cc1cnc2c(N3C[C@@H](C)N[C@@H](C)C3)ccc(C(=O)Nc3cc(F)c4nc(C)cn4c3)c2n1` [Compound 216, 8-((3R,5S)-3,5-dimethylpiperazin-1-yl)-N-{8-fluoro-2-methylimidazo[1,2-a]pyridin-6-yl}-3-methylquinoxaline-5-carboxamide], the IC50 with SMN2 mRNA was less than 0.1 µM; with Target C mRNA, more than 10 µM; in the assay with HiBiT-tagged HTT protein, 1 to 10 µM; in the assay on Target C it was 1 to 10 µM.

As for `Cc1cn2cc(NC(=O)c3ccc(N4CCNC5(CC5)C4)c4nccnc34)cc(F)c2n1` [Compound 218, 8-{4,7-diazaspiro[2.5]octan-7-yl}-N-{8-fluoro-2-methylimidazo[1,2-a]pyridin-6-yl}quinoxaline-5-carboxamide], the IC50 in the assay with SMN2 mRNA was less than 0.1 µM; in the assay with Target C mRNA it was more than 10 µM; in the assay with HiBiT-tagged HTT protein, 1 to 10 µM; in the assay on Target C it was 1 to 10 µM.

In the case of `Cc1cn2cc(NC(=O)c3ccc(N4CC(C)(C)NC(C)(C)C4)c4nccnc34)cc(F)c2n1` [Compound 219, N-{8-fluoro-2-methylimidazo[1,2-a]pyridin-6-yl}-8-(3,3,5,5-tetramethylpiperazin-1-yl)quinoxaline-5-carboxamide], the concentration for half-maximal inhibition (IC50) was less than 0.1 µM in the assay with SMN2 mRNA, 1 to 10 µM in the assay on Target C mRNA, 1 to 10 µM with HiBiT-tagged HTT protein and 1 to 10 µM in the assay with Target C.

Turning to `Cc1cn2cc(NC(=O)c3ccc(N4CCNC(C)(C)C4)c4nccnc34)cc(F)c2n1` [Compound 220, 8-(3,3-dimethylpiperazin-1-yl)-N-{8-fluoro-2-methylimidazo[1,2-a]pyridin-6-yl}quinoxaline-5-carboxamide], the concentration for half-maximal inhibition (IC50) is less than 0.1 µM with SMN2 mRNA, 1 to 10 µM with Target C mRNA, 1 to 10 µM in the assay on HiBiT-tagged HTT protein and 1 to 10 µM in the assay with Target C.

Consider `CCNC1CCN(c2ccc(C(=O)Nc3cc(F)c4nc(C)sc4c3)c3nnccc23)CC1` [Compound 221, 5-[4-(ethylamino)piperidin-1-yl]-N-(4-fluoro-2-methyl-1,3-benzothiazol-6-yl)cinnoline-8-carboxamide], for which the 50% inhibitory concentration (IC50) in the assay with SMN2 mRNA was less than 0.1 µM; in the assay on Target C mRNA, 1 to 10 µM; with HiBiT-tagged HTT protein, 1 to 10 µM; with Target C, 1 to 10 µM.

As for `COc1cnc2c(C(=O)Nc3cc(F)c4nc(C)cn4c3)ccc(N3C[C@@H](C)N[C@@H](C)C3)c2n1` [Compound 223], the 50% inhibitory concentration (IC50) with SMN2 mRNA is less than 0.1 µM; in the assay with Target C mRNA, 0.1 to 1 µM; with HiBiT-tagged HTT protein, 0.1 to 1 µM; with Target C, 0.1 to 1 µM.

Take `COc1cnc2c(C(=O)Nc3cc(F)c4nc(C)cn4c3)ccc(N3CCNCC3)c2n1` [Compound 225, N-{8-fluoro-2-methylimidazo[1,2-a]pyridin-6-yl}-2-methoxy-8-(piperazin-1-yl)quinoxaline-5-carboxamide]: the concentration for half-maximal inhibition (IC50) in the assay on SMN2 mRNA was less than 0.1 µM; in the assay with Target C mRNA it was more than 10 µM; in the assay with HiBiT-tagged HTT protein it was more than 10 µM; in the assay with Target C, more than 10 µM.

`Cc1cn2cc(NC(=O)c3ccc(N4CCN(CCF)C5(CC5)C4)c4nccnc34)cc(F)c2n1` [Compound 370]: the IC50 is 0.1 to 1 µM with SMN2 mRNA, more than 10 µM in the assay on Target C mRNA, more than 10 µM with HiBiT-tagged HTT protein and more than 10 µM in the assay on Target C.

Turning to `Cc1cn2cc(NC(=O)c3ccc(C4CCNCC4)c4nccnc34)cc(F)c2n1` [Compound 371], the IC50 in the assay on SMN2 mRNA is less than 0.1 µM; in the assay on Target C mRNA, 1 to 10 µM; in the assay with HiBiT-tagged HTT protein, 0.1 to 1 µM; with Target C, 0.1 to 1 µM.

Take `Cc1cn2cc(NC(=O)c3ccc(N4CCNC5(COC5)C4)c4nccnc34)cc(F)c2n1` [Compound 372]: the IC50 in the assay on SMN2 mRNA is 0.1 to 1 µM; with Target C mRNA, more than 10 µM; in the assay on HiBiT-tagged HTT protein, more than 10 µM; in the assay on Target C, more than 10 µM.

For the compound `Cc1cn2cc(NC(=O)c3ccc(N4CCNC5(CCOC5)C4)c4nccnc34)cc(F)c2n1` (centres unmarked) [Compound 373], the IC50 with SMN2 mRNA is less than 0.1 µM; in the assay on Target C mRNA, more than 10 µM; in the assay on HiBiT-tagged HTT protein, 1 to 10 µM; with Target C, 1 to 10 µM.

For the compound `Cc1cn2cc(NC(=O)c3ccc(N4CCNC5(CCOCC5)C4)c4nccnc34)cc(F)c2n1` [Compound 374], the IC50 was less than 0.1 µM in the assay on SMN2 mRNA, 1 to 10 µM in the assay on Target C mRNA, 1 to 10 µM in the assay on HiBiT-tagged HTT protein and 1 to 10 µM with Target C.
